In test [1] the target is Ras GEF SOS (Son of Sevenless) (Homo sapiens, UniProt Q07889). The experiment in a line: SOS-mediated nucleotide exchange on Ras (BODIPY-GDP fluorescence). In kind it is biochemical. The conditions noted are these: SOS-mediated exchange of BODIPY-GDP for GTP on Ras. As to the method:
Compounds of the present invention were tested for their ability to modify the rate at which Ras exchanges a labeled nucleotide guanosine diphosphate (GDP) analog for guanosine triphosphate (GTP). Briefly, test compounds, then GTP and the Ras GEF SOS (Son of Sevenless) are added to a buffered solution containing Ras protein loaded with BODIPY-GDP. Changes in fluoresence indicating exchange of the labeled GDP for GTP are monitored over time. Raw fluorescence data was fit to a single exponential decay function and derived rates were plotted as mean values. EC50 values were calculated by plotting mean derived rates as a function of compound concentration and fit using a four-parameter dose-response curve. This assay is performed in a method analogous to the assay disclosed in: Burns, M. C.; Sun, Q.; Daniels, R. N.; Camper, D. V.; Kennedy, J. P.; Phan, J.; Olejniczak, E. O.; Lee, T.; Waterson, A. G.; Rossanese, O. W.; Fesik, S. W. “Approach for targeting Ras with small molecules that activate SOS-mediated nucleotide exchange” Proc. Natl. Acad. Sci. 2014; 11(9): 3401-3406. PMCID: PMC3948241.

The target of the next test is T1, Son of Sevenless (SOS) (Homo sapiens, UniProt Q07889).
T1 sequence (Q07889 564-1049 limits assumed): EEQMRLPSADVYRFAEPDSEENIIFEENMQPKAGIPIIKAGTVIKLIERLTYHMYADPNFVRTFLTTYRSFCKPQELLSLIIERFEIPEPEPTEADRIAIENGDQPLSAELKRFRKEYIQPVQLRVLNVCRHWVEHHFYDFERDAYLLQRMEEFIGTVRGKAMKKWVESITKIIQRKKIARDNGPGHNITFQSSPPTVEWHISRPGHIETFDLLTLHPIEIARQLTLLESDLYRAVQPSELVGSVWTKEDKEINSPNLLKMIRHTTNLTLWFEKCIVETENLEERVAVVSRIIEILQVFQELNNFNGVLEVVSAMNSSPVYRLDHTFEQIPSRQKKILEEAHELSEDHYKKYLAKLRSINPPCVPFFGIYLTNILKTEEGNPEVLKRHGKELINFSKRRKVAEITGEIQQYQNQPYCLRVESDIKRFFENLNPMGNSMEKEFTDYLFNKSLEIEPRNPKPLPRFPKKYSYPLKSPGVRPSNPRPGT
Description: Binding to SOS, fluorescence polarization anisotropy (FPA) probe displacement. Particulars: displacement of FITC-conjugated probe (Example 285), affinity calculated from IC50. As to the method:
Compounds of the present invention were tested for their ability to bind to the Ras guanine exchange factor (GEF) Son of Sevenless (SOS). Binding to SOS was measured using a Fluorescence polarization anisotropy (FPA) assay that assesses the ability of a test compound to displace a fluorescent FITC-conjugated compound (Example 285). Briefly, the labeled probe compound is incubated with SOS in buffer. Changes in anisotropy indicative of displacement of the labeled probe for a test compound are assessed over a dose range of test compound. Data was analyzed by plotting fluorescence anisotropy values as a function of compound concentration. IC50 values were determined using a four-parameter dose-response (variable slope) and binding affinities were calculated from this IC50 value. This assay is performed in a method analogous to the assay disclosed in: Burns, M. C.; Sun, Q.; Daniels, R. N.; Camper, D. V.; Kennedy, J. P.; Phan, J.; Olejniczak, E. O.; Lee, T.; Waterson, A. G.; Rossanese, O. W.; Fesik, S. W. “Approach for targeting Ras with small molecules that activate SOS-mediated nucleotide exchange” Proc. Natl. Acad. Sci. 2014; 11(9): 3401-3406. PMCID: PMC3948241.

pEC50, pKi: −log10 of the molar value. Where a name gives a salt, the structure may show the parent alone. A value given as a limit tells only on which side of the number the result lay.

Ras GEF SOS (Son of Sevenless), sequence (P01112 1-166 partner limits assumed, one chain of several): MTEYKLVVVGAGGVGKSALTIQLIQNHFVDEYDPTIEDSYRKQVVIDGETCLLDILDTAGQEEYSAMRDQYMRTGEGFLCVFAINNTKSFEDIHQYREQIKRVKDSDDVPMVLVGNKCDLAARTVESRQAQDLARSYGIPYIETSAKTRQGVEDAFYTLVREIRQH

For the compound `CCc1cc(Cn2c(NCCN)nc3c(-c4ccccc4Cl)c(C)c(C)cc32)ccc1Cl` [Example 112, N^1-(1-(4-chloro-3-ethylbenzyl)-4-(2-chlorophenyl)-5,6-dimethyl-1H-benzo[d]imidazol-2-yl)ethane-1,2-diamine trifluoroacetate], the pEC50 (usually the negative decadic logarithm of the EC50, by convention in mol/L) in test [1] is 4.52 to 5.30. The negative-log Ki (pKi) (usually the negative decadic logarithm of the Ki, by convention in mol/L) at Son of Sevenless (SOS) is 5.30 to 6.00.

In test [1], `Cc1cc2nc(N3CCCNCC3)n(Cc3ccc(F)c(Cl)c3)c2cc1C` [Example 36, 1-(3-chloro-4-fluorobenzyl)-2-(1,4-diazepan-1-yl)-5,6-dimethyl-1H-benzo[d]imidazole trifluoroacetate] showed a pEC50 of 4.52 to 5.30. On Son of Sevenless (SOS), the pKi was under 5.30. For the compound `Cc1cc2nc(N[C@H]3C[C@@H](N)C3)n(Cc3ccc(F)c(Cl)c3)c2cc1C` [Example 292, (1s,3s)-N^1-(1-(3-chloro-4-fluorobenzyl)-5,6-dimethyl-1H-benzo[d]imidazol-2-yl)cyclobutane-1,3-diamine], the pEC50 in test [1] is 5.30 to 6.00. The pKi at Son of Sevenless (SOS) was 5.30 to 6.00. Compound `Fc1cc(F)cc(Cn2c(N3CCNCC3)nc3c(-c4ccccc4F)cccc32)c1` [Example 90, 1-(3,5-difluorobenzyl)-4-(2-fluorophenyl)-2-(piperazin-1-yl)-1H-benzo[d]imidazole] had a pEC50 in test [1] of 5.30 to 6.00. Further, the pKi on Son of Sevenless (SOS) was 5.30 to 6.00. The compound `Cc1cc2nc(N3CCN(C)CC3)n(Cc3ccc(F)cc3)c2cc1C` [Example 24, 1-(4-fluorobenzyl)-5,6-dimethyl-2-(4-methylpiperazin-1-yl)-1H-benzo[d]imidazole trifluoroacetate] showed a pEC50 in test [1] of 5.30 to 6.00. At Son of Sevenless (SOS), the pKi is under 5.30. With `O=C(O)Cc1cc(Cl)cc2c1nc(N1CCNCC1)n2Cc1ccc(F)c(Cl)c1` [Example 311, 2-(6-chloro-1-(3-chloro-4-fluorobenzyl)-2-(piperazin-1-yl)-1H-benzo[d]imidazol-4-yl)acetic acid], the pEC50 in test [1] was over 6.00. Further, the pKi at Son of Sevenless (SOS) is 5.30 to 6.00. Taken in the same sequence, the figures for `Cc1cc2nc(NCCO)n(Cc3ccc(F)c(Cl)c3)c2cc1C` [Example 26, 2-((1-(3-chloro-4-fluorobenzyl)-5,6-dimethyl-1H-benzo[d]imidazol-2-yl)amino)ethan-1-ol] were 4.52 to 5.30 and under 5.30.

Regarding `Cc1cc(NCCCN(C)C)c2nc(N3CCNCC3)n(Cc3cc(C)c(F)c(C)c3)c2c1` [Example 197, N^1-(1-(4-fluoro-3,5-dimethylbenzyl)-6-methyl-2-(piperazin-1-yl)-1H-benzo[d]imidazol-4-yl)-N^3,N^3-dimethylpropane-1,3-diamine trifluoroacetate], the pEC50 in test [1] was 5.30 to 6.00. The pKi on Son of Sevenless (SOS) is 6.00 to 6.30.

In turn, `Cc1cc(-c2ccc(CN)cc2)c2nc(N3CCNCC3)n(Cc3cc(C)c(F)c(C)c3)c2c1` [Example 318, (4-(1-(4-fluoro-3,5-dimethylbenzyl)-6-methyl-2-(piperazin-1-yl)-1H-benzo[d]imidazol-4-yl)phenyl)methanamine] showed a pEC50 in test [1] of over 6.00. Moreover, the pKi at Son of Sevenless (SOS) was over 6.30. With `Cc1cc(OCC2CCNCC2)c2nc(N3CCNCC3)n(Cc3cc(C)c(F)c(C)c3)c2c1` [Example 202, 1-(4-fluoro-3,5-dimethylbenzyl)-6-methyl-2-(piperazin-1-yl)-4-(piperidin-4-ylmethoxy)-1H-benzo[d]imidazole], the pKi at Son of Sevenless (SOS) was 6.00 to 6.30. Still for that read-out and setting: for `Cc1cc(OCCNCCO)c2nc(N3CCNCC3)n(Cc3cc(C)c(F)c(C)c3)c2c1` [Example 199, 2-((2-((1-(4-fluoro-3,5-dimethylbenzyl)-6-methyl-2-(piperazin-1-yl)-1H-benzo[d]imidazol-4-yl)oxy)ethyl)amino)ethan-1-ol] the value was 6.00 to 6.30; for `N[C@@H](Cc1ccccc1)c1cc(Cl)cc2c1nc(N1CCNCC1)n2Cc1ccc(F)c(Cl)c1` [Example 166, (S)-1-(6-chloro-1-(3-chloro-4-fluorobenzyl)-2-(piperazin-1-yl)-1H-benzo[d]imidazol-4-yl)-2-phenylethan-1-amine trifluoroacetate], 6.00 to 6.30.

Values taken from patent US10501421B1, “Substituted benzimidazoles as modulators of Ras signaling” (VANDERBILT UNIVERSITY, priority 2017, dated 2019).
